Values joined by “and” are separate entries in the source; they are usually repeats but may differ in a detail not shown here. Equal values may be shown once. One block for each molecule: values may come before it.
Tests used:
DENV serotype 2 [1] = assay: GOViRA (graphene oxide-based viral RNA analysis) fluorescence antiviral assay / drug library screening in Vero E6 cells; type: cell-based, dengue virus
Procedure: Vero E6 cells were seeded onto 96-well, black wall, optical bottom plates at a density of 1.5×10^4 cells per well and incubated with DMEM supplemented with 10% FBS and P/S. After overnight incubation, the cells were briefly washed with 1× PBS and infected with DENV. Next, 20 pmol vPNA or β-actin PNA probe was mixed with 1.2 μg DRGON solution for 10 min at RT. The Vero E6 cells were treated with the PNA-DRGON complexes for 5 h. The plates were incubated for up to 72 h, and cell nuclei were counterstained with Hoechst 33342. Fluorescent images were obtained by the IN Cell Analyzer 2000 (GE Healthcare) and DeltaVision Elite (GE Healthcare) imaging system. The quantification of data was processed with the IN Cell Developer software (https://cyvitalifesciences.com).
For the drug library screening experiments, 1.5×10^4 Vero E6 cells in a total volume of 100 μL per well were seeded onto 96-well, black wall, optical bottom plates using DMEM media supplemented with 10% FBS and P/S and incubated overnight. Next, the cells were pretreated with 50 μL of experimental compounds or vehicle in DMEM supplemented with 2% FBS and P/S and incubated 1 h at 37° C. Next, 50 μL of DENV (a final MOI of 0.5) were added to each well, resulting in a 10 μM final concentration for each compound and cells were incubated for 48 h.
Infection was stopped by rinsing each well with 1× PBS, and the infected cells were treated with the PNA-DRGON complexes for 5 h at 37° C. and then briefly washed with 1× PBS. Fluorescent images were obtained by the IN Cell Analyzer 2000, and quantification of the data was processed using the IN Cell Developer software.
To determine its systemic reliability as a high-throughput screening assay, we used Z′-factor as a statistical parameter. […] To further verify whether the GOViRA system is capable of the quantitative analysis of antiviral activity, we utilized the system to investigate the cellular effect caused by a model representative antiviral compound, Ribavirin. […]

Vero E6 cells = assay: Cell viability test (CCK-8 assay); type: cell-based
Procedure: The CCK-8 assay was performed according to the manufacturer's instructions. Vero E6, Huh7, and A549 cells were seeded in 96-well culture plates with 100 μL of complete media. After 24 h of incubation, the cells were treated with nanomaterials or drug in serially diluted concentrations for 48 h. The cells were rinsed with 1× PBS twice, and CCK-8 reagent was treated at a concentration of 10% (v/v) and incubated for 1 h. The optical density at 450 nm was measured by SynergyMx (Biotek) in the absorbance mode.

DENV (KBPV-VR-29) = assay: Murine DENV infection model (AG129 mice); type: in vivo
Procedure: AG129 mice (8-10 weeks old, female) were purchased from Marshall BioResources and housed under pathogen-free conditions. Animal research was approved by the Institutional Animal Care and Use Committee of Seoul National University and was performed according to the guidelines of the recommendations from the Association for Assessment and Accreditation of Laboratory Animal Care.
The murine DENV infection model was as described in previous study (Park, S. J., Kim, J., Kang, S., Cha, H. J., Shin, H., Park, J., Jang, Y. S., Woo, J. S., Won, C., Min, D. H., 2020. Sci Adv 6 (22), eaaz8201.). AG129 mice were exposed with a target dose of […] of the DENV by intraperitoneal injection. One hour after the challenge, the animals were treated with ulipristal. The compound was dissolved in sesame oil at a 10× concentration and further diluted in 1× PBS. Ulipristal was administered to the animals by intraperitoneal injection.
Animals in the vehicle control groups were administered a solution with no drug. The animals were monitored for weight, morbidity (ruffled fur, hunched posture, etc.), and survival daily for a total of 14 days after infection. Mice with a weight <80% of their initial body weight were humanely euthanized. At 3 days p.i., mice were sacrificed from each group. Blood and organ samples were collected. Blood was clarified by centrifugation, and viremia was determined by qRT-PCR. Organs were homogenized, and total RNA was extracted using Trizol. The relative DENV RNA level from each organ was determined by qRT-PCR.
Organ samples were fixed with 4% paraformaldehyde and embedded in paraffin. Paraffin sections were stained with H&E at the pathology core facility in the Center for Medical Innovation, Seoul National University Hospital, Korea.
The DENV strain we used (KBPV-VR-29) has been reported as a mouse-adapted virus strain. […] One hour after the infection, the animals were treated with ulipristal or vehicle over 14 days, and survival was monitored during that period.
Ulipristal was given at a dose of 15 mg/kg every day through intraperitoneal injection.

DENV [2] = assay: Time-of-addition assay in A549 cells; type: cell-based, dengue virus; settings: 48 h p.i.
Procedure: A549 cells were seeded onto 24-well plates. After incubation overnight, cells were treated with ulipristal at the various time points and inoculated with DENV. At 48 h p.i., the cells were washed with 1× PBS and processed for qRT-PCR.
A549 cells were treated with ulipristal in three different conditions: treatment before the infection (pre-treatment), treatment along with the infection (co-treatment), and treatment after the infection (post-treatment) (FIG. 14A). […] Furthermore, the degree of inhibitory effect was decreased as the ulipristal administration was delayed (FIG. 14B).

PR = assay: qRT-PCR analysis of PR expression in A549 cells; type: cell-based; settings: 24 h of incubation
Procedure: (§1) Total RNA was extracted using Trizol (Invitrogen). The cDNA samples were prepared by reverse transcription using SuperScript II Reverse Transcriptase (Invitrogen). The synthesized cDNA samples were subjected to qRT-PCR with primers specific for each gene by using the PowerUp SYBR Green Master Mix (Applied Biosystems) and CFX Connect (Bio-Rad).
A time-of-addition experiment was performed to determine which time point of the viral infection stage is affected by the administration of ulipristal. Because ulipristal is widely known as an SPRM compound, we chose a cell line without PR expression to exclude the influence of PR signaling on the time-of-addition experiment. […] After 24 h of incubation, the RNA expression level of each group was analyzed. There was no PR expression in the NT group (FIG. 13). […] Therefore, we examined the mode of action of ulipristal using the A549 cell line.

DENV serotype 2 [3] = assay: Focus-forming assay (FFA) in Vero E6 cells; type: cell-based, dengue virus
Procedure: The virus was titrated by FFA in Vero E6 cells. Ten-fold serial diluted virus in DMEM supplemented with 2% FBS and P/S was added onto confluent Vero E6 cell monolayers attached to 96-well, black wall, optical bottom plates (Corning) and incubated for 1 h. After the incubation, the wells were overlaid with 100 μL of DMEM with 10% FBS, P/S, and methylcellulose and incubated for 2 days. Following the incubation, cell monolayers were fixed with 4% paraformaldehyde and then treated with blocking solution for 1 h. Samples were then treated with the anti-Dengue virus E protein antibody (GeneTex, GTX127277), followed by FITC-labeled goat anti-mouse IgG secondary antibody (Sigma-Aldrich, F0257).
(§2) Standard assays were done to check the antiviral effect and cytotoxicity of ulipristal in vitro. The activity of ulipristal against DENV was evaluated by both FFA and qRT-PCR. For the FFA, Vero E6 cells were infected with DENV in the presence of various concentrations of ulipristal.
(§3) The anti-DENV activity was assessed by immunostaining with antibodies specific to the DENV E protein. […] The cytotoxicity of the compound in the Vero E6 cells was determined by the CCK-8 assay.

DENV [4] = assay: qRT-PCR analysis of viral RNA in DENV-infected Vero E6 cells; type: cell-based, dengue virus; settings: dose-dependent treatment
Procedure: as §1, §2, §3

DENV [5] = assay: DENV infection in Huh7 cells (qRT-PCR of viral RNA, E protein immunostaining); type: cell-based, dengue virus
Procedure: as §1
(§4) We further validated the antiviral activity of ulipristal using Huh7 (liver carcinoma cell line) and A549 (lung carcinoma cell line) cell lines as hosts for the DENV infection. Both cell monolayers were analyzed with qRT-PCR to observe the relative DENV RNA level. […] Moreover, the fluorescence signal of the viral E protein from immunostaining also was reduced by the ulipristal treatment (FIG. 11C).

DENV [6] = assay: DENV infection in A549 cells (qRT-PCR of viral RNA, E protein immunostaining); type: cell-based, dengue virus
Procedure: as §1, §4

[7] = 15 mg/kg every day i.p., day 3 p.i.

EC50 (DENV serotype 2 [1]; Dengue virus, Vero C1008, DENV-infected Vero E6 cells, concentrations 6.25 μM to 400 μM, PNA-DRGON complex after 48 hours, read-out: EC50 value for DENV serotype 2 (GOViRA system)): 49.2 ± 0.2 µM
Structure (SMILES): NC(=O)c1ncn([C@@H]2O[C@H](CO)[C@@H](O)[C@H]2O)n1 [ribavirin, Ribavirin]
fluorescence signal (GOViRA), dose response (DENV serotype 2 [1]; DENV-infected Vero E6 cells): serial decrease in the fluorescence signal dose-dependently

Structure (SMILES): CC(=O)[C@@]1(O)CC[C@H]2[C@@H]3CCC4=CC(=O)CCC4=C3[C@@H](c3ccc(N(C)C)cc3)C[C@@]21C [ulipristal]
cell viability in drug library screening (Vero E6 cells; 10 μM): minimal effects on cell viability
cytotoxicity / cell viability (CCK-8) (Vero E6 cells; 48 h): no impact on cell viability
spleen histology (H&E), white-pulp/red-pulp boundary loss (DENV (KBPV-VR-29); 15 mg/kg every day i.p.): boundary loss was decreased
viral RNA load in organs (spleen, lung, liver, large intestine) (DENV (KBPV-VR-29); [7]): significantly decreased
viral RNA load in the small intestine, difference vs vehicle (DENV (KBPV-VR-29); [7]): not statistically significant
viremia in the blood (qRT-PCR) (DENV (KBPV-VR-29); 15 mg/kg every day i.p., day 3 p.i., vs control group): significantly reduced viremia
liver histology (H&E): nuclear pleomorphism of hepatocytes, dilatation of sinusoids, focal necrosis (DENV (KBPV-VR-29); 15 mg/kg every day i.p., vs control group): significant reduction of such symptoms
survival (DENV (KBPV-VR-29); 15 mg/kg every day, intraperitoneal, 14 days, log-rank test): statistically significant survival benefit (P=0.0007)
relative body weight change and disease symptoms (DENV (KBPV-VR-29); 15 mg/kg every day, intraperitoneal, DENV 1×107 FFU i.p., 14 days): Compared to the ulipristal-treated group, the control group exhibited a huge weight loss
intracellular viral RNA level, antiviral effect (DENV [2]; co-treatment (along with the infection)): antiviral effect by the administration of the drug was observed
intracellular viral RNA level, antiviral effect (DENV [2]; post-treatment (after the virus inoculation)): less inhibitory effect
intracellular viral RNA level, antiviral effect (DENV [2]; pre-treatment (before the infection)): antiviral effect by the administration of the drug was observed
levels of PR expression (qRT-PCR) (PR): did not influence the levels of PR expression
EC50 (DENV serotype 2 [3]; DENV serotype 2, read-out: half-effective concentration (EC50), anti-DENV activity by FFA): 8.3 µM and 8.28 µM
number of foci (FFA, DENV E protein immunostaining) (DENV serotype 2 [3]; various concentrations): number of foci decreased in a dose-dependent manner
relative expression level of viral RNA (qRT-PCR) (DENV [4]): active against DENV
fluorescence signal of viral E protein (immunostaining) (DENV [5]): reduced
relative DENV RNA level (qRT-PCR) (DENV [5]): inhibited the DENV infection in both cell lines dose-dependently
fluorescence signal decrease in drug library screening (DENV serotype 2 [1]; 10 μM, Vero E6 cells, pretreated 1 h, MOI 0.5, 48 h): < 25%
fluorescence signal of viral E protein (immunostaining) (DENV [6]): reduced
relative DENV RNA level (qRT-PCR) (DENV [6]): inhibited the DENV infection in both cell lines dose-dependently

Source: US12551494B2, “Pharmaceutical composition for preventing or treating dengue fever” (SEOUL NATIONAL UNIVERSITY R&DB FOUNDATION, priority 2021, dated 2026)
